In patent publication US12472201B2, “Complexing agent salt formulations of pharmaceutical compounds” (Bexson Biomedical, Inc., priority 2020, dated 2025):
“And” between values parts separate entries of the source, which are not always exact repeats. Equal values may be shown once. Where a name gives a salt, the structure may show the parent alone. Marks after values point to notes of the source that are not given here.

How the values were obtained:
[1] = Forced precipitation of racemic ketamine with 2M NaOH; format: physicochemical; details: 70 mg/mL ketamine FB equiv., 2 mL volume, 2M NaOH after pH 5.5 in 1-2 μL volumes
Description: The tests were conducted on a 2 mL volume. Base was added in 1-2 μL volumes.

[2] = Osmolality of ketamine HCl and ketamine-Captisol complexes; format: physicochemical; details: for Mean Osmolality: each sample run in triplicate
Description: Osmolality. Osmolality readings were obtained on an Advanced Instruments Advanced™ Micro Osmometer Model 3300 (Advanced Instruments, Inc. Norwood, MA, USA). Saline solutions (0.9% and 3%) were freshly prepared with sodium chloride (Fisher Scientific, Fair Lawn, NJ) and run as positive controls. Each sample was calculated as the mean from back-to-back triplicate measurements.

[3] = Forced precipitation of API HCl salt and API FB-CapAcid formulation with 2M NaOH; format: physicochemical; details: 70 mg/mL API in FB equivalents, 1 mL scale, 1 μL increments of 2M NaOH, starting pH 7.0±0.1
[4] = Final pH and average osmolality of API Captisol formulations and API salt solutions
[5] = Theoretical vs measured osmolarities of API-Cap formulations; format: physicochemical; details: API-Cap Formulations at 70 mg/mL freebase equivalents; for Percentage of Theoretical: measured osmolality vs calculated osmolarity
[6] = Solubility of DMT, 5-MeO-DMT and Mescaline in Captisol sodium solution; format: physicochemical; details: equimolar Captisol Sodium form in water; for Appearance after filtration / Osmolality / pH: agitated overnight; for Amine Conc.: total 10 g, agitated at room temperature overnight, after filtration
Description: An equimolar amount of Captisol Sodium form and 5 mL HPLC grade water were added to three 20 mL vials equipped with stir bars. Once a solution was formed, 638 mg of DMT, 700 mg of 5-MeO-DMT, and 700 mg of Mescaline were added to each vial. Each solution was diluted with water to a total solution weight of 10 g. The mixtures were agitated at room temperature overnight and analyzed.

physchem = details: water, thermodynamic from solid
[7] = API HCl salt (70 mg/mL in FB equiv)
[8] = CapAcid-API Freebase Formulation (70 mg/mL API FB, 1.1 molar equiv CapAcid)
[9] = Captisol-API HCl salt formulation (70 mg/mL API HCl salt in FB equiv, 1.1 molar equiv Captisol in CapAcid equiv)
[10] = Captisol salt formulation with DXM HBr 15 mg/mL FB equiv
[11] = salt solution, DXM HBr 15 mg/mL FB equiv
[12] = salt solution, 5-IAI HCl 35 mg/mL FB equiv
[13] = Captisol salt formulation with nicotine Stoichiometric Fumarate salt, 70 mg/mL FB equiv
[14] = salt solution, nicotine Stoichiometric Fumarate salt, 70 mg/mL FB equiv
[15] = Captisol salt formulation with Sumatriptan stoichiometric succinate salt, 70 mg/mL FB equiv
[16] = salt solution, Sumatriptan stoichiometric succinate salt, 70 mg/mL FB equiv

Row | SMILES | Osmolality [4, 7] [mOsm/kg] | pH [4, 7] | Osmolality [4, 8] | pH [4, 8] | Osmolality [4, 9] | pH [4, 9] | Measured Osmolality [5] [mOsmol/L] | also measured
1 | CNC1(c2ccccc2Cl)CCCCC1=O (racemic) [Ketamine HCl] | – | – | – | – | – | – | – | Mean Volume Base to precip ± SEM [1]: 4 ± 0 µL; Mean Osmolality ([2]; 75 mg/mL): 533.3 mOsm; Mean Osmolality ([2]; 100 mg/mL): 703.0 mOsm; Average osmolality ± SEM ([2]; [Ketamine] 70 mg/mL FB equiv., HCl): 527 ± 2.69 mOsm/kg and 527.0 ± 2.7 mOsm/kg; Average osmolality ± SEM ([2]; [Ketamine] 96 mg/mL FB equiv., HCl): 704.4 ± 9.95 mOsm/kg and 704.4 ± 9.9 mOsm/kg; Average osmolality ± SEM ([2]; [Ketamine] 100 mg/mL FB equiv.): 736.83 ± 3.7 mOsm/kg
2 | CNC(C)Cc1cccc(F)c1.Cl (stereo not shown) [3-FMA HCl] | – | – | – | – | – | – | – | Volume of Base need for Precipitation [3]: 37 µL
3 | CNC(C)Cc1ccc2occc2c1.Cl (stereo not shown) [5-MAPB HCl] | – | – | – | – | – | – | – | Volume of Base need for Precipitation [3]: 47* μL
4 | CNC1(c2ccccc2)CCCCC1=O (stereo not shown) [DCK, 2-(methylamino)-2-phenylcyclohexan-1-one] | 601 | 4.73 | 310 mOsm/kg | 7.00 | 1,086 mOsm/kg | 6.98 | 310 | Percentage of Theoretical [5]: 77.1%
5 | CN(C)CCc1c[nH]c2ccccc12 [DMT, N,N-Dimethyltryptamine] | – | – | – | – | – | – | – | Appearance after filtration [6]: Clear/colorless; Osmolality [6]: 300 mOsm/kg; pH [6]: 11.10; Amine Conc. [6]: 13.6 mg/mi
6 | COc1ccc2c(c1)[C@]13CCCC[C@@H]1[C@H](C2)N(C)CC3 [DXM HBr hydrate, dextromethorphan HBr hydrate] | – | – | – | – | – | – | – | solubility at 48 h (physchem): 16.4 mg/mL
7 | COc1ccc2c(c1)[C@]13CCCC[C@@H]1[C@H](C2)N(C)CC3 [DXM, dextromethorphan, reference compound] | – | – | 113 mOsm/kg | 6.95 | – | – | 113 | Osmolality [4, 10]: 145* mOsm/kg; pH [4, 10]: 7.05; Osmolality [4, 11]: 91 mOsm/kg; pH [4, 11]: 5.47
8 | CNC1(c2ccccc2F)CCCCC1=O (stereo not shown) [Example 2-F-DCK, 2-(2-fluorophenyl)-2-(methylamino)cyclohexan-1-one] | 560 | 4.27 | 373 mOsm/kg | 6.97 | 1,046 mOsm/kg | – | 373 | Percentage of Theoretical [5]: 100.9%
9 | CNC(C)Cc1cccc(F)c1 (stereo not shown) [Example 3-FMA, 1-(3-fluorophenyl)-N-methylpropan-2-amine] | 706 | 5.17 | 337 mOsm/kg | 6.78 | 1,388 mOsm/kg | 7.01 | 337 | –
10 | CNC(C)C(=O)c1cccc(C)c1 (stereo not shown) [Example 3-MMC, 2-(methylamino)-1-(m-tolyl)propan-1-one] | 636 | 4.76 | 312 mOsm/kg | 6.99 | 1,190* mOsm/kg | 6.98 | 312 | –
11 | NC1Cc2ccc(I)cc2C1 (stereo not shown) [Example 5-IAI, 5-iodo-2,3-dihydro-JH-inden-2-amine] | – | – | 119 mOsm/kg | 6.97 | 621 mOsm/kg | 6.98 | 119 | Osmolality [4, 12]: 221 mOsm/kg; pH [4, 12]: 4.62
12 | CNC(C)Cc1ccc2occc2c1 (stereo not shown) [Example 5-MAPB, 1-(benzofuran-5-yl)-N-methylpropan-2-amine] | 556 | 3.16 | 215 mOsm/kg | 7.10 | 1,004 mOsm/kg | 7.15 | 215 | –
13 | COc1ccc2[nH]cc(CCN(C)C)c2c1 [Example 5-MeO-DMT, 5-methoxy-N,N-dimethyltryptamine] | – | – | – | – | – | – | – | Appearance after filtration [6]: Clear/faint yellow; Osmolality [6]: 316 mOsm/kg; pH [6]: 11.03; Amine Conc. [6]: 14.6 mg/mi
14 | CNC1(c2ccccc2Cl)CCCCC1=O (stereo not shown) [Ketamine] | – | – | – | – | – | – | 291 | Percentage of Theoretical [5]: 84.6%
15 | CCN(CC)CC(=O)Nc1c(C)cccc1C [Lidocaine HCl, reference compound] | – | – | – | – | – | – | – | Volume of Base need for Precipitation [3]: 5 µL
16 | CCN(CC)CC(=O)Nc1c(C)cccc1C [Lidocaine, reference compound] | 543 | 4.60 | 304 mOsm/kg | 6.99 | 844 mOsm/kg | 6.95 | 304 | Percentage of Theoretical [5]: 87.0%
17 | Cc1cccc(C(=O)C(C)N(C)C)c1.Cl (stereo not shown) [Me-3-MMC HCl, Me-3-MMC hydrochloride] | – | – | – | – | – | – | – | Volume of Base need for Precipitation [3]: 6.5* μL
18 | Cc1cccc(C(=O)C(C)N(C)C)c1 (stereo not shown) [Me-3-MMC, 2-(dimethylamino)-1-(m-tolyl)propan-1-one] | 578 | 4.44 | 321 mOsm/kg | 6.95 | 1,151 mOsm/kg | 7.00 | 321 | –
19 | COc1cc(CCN)cc(OC)c1OC [Mescaline] | – | – | – | – | – | – | – | Appearance after filtration [6]: Clear/light yellow; Osmolality [6]: 570 mOsm/kg; pH [6]: 11.69; Amine Conc. [6]: 77.7 mg/mi
20 | CN1CC[C@]23c4c5ccc(O)c4O[C@H]2[C@@H](O)C=C[C@H]3[C@H]1C5 [Morphine, reference compound] | – | – | 166 mOsm/kg | 6.09 | – | – | 166 | Percentage of Theoretical [5]: 57.9%
21 | CN1CCC[C@H]1c1cccnc1 [Nicotine, S-(−)-nicotine, reference compound] | – | – | 555* mOsm/kg | 7.02* | – | – | 555 | Osmolality [4, 13]: 2,006 mOsm/kg; pH [4, 13]: 6.97; Osmolality [4, 14]: 682 mOsm/kg; pH [4, 14]: 3.80; Percentage of Theoretical [5]: 110.1%
22 | CNS(=O)(=O)Cc1ccc2[nH]cc(CCN(C)C)c2c1 [Sumatriptan, 1-(3-(2-(dimethylamino)ethyl)-1H-indol-5-yl)-N-methylmethanesulfonamide, reference compound] | – | – | 109 mOsm/kg | 7.06 | – | – | 109 | Osmolality [4, 15]: 858 mOsm/kg; pH [4, 15]: 6.99; Osmolality [4, 16]: 293 mOsm/kg; pH [4, 16]: 4.57
